# In ChEMBL document CHEMBL3885861, “Open TG-GATES”:
# Species: Rattus norvegicus
# Assay: Open TG-GATES - Regimen: Daily Repeat
# Format: toxicity, organism-based, Sprague-Dawley
# Design: regimen Daily Repeat, gender Male, age 6 weeks
# Details: in vivo, po, 60 mg/kg, route gavage, dose level Low; for APTT / Bas / Eos / Fbg / Hb / Ht / Lym / MCH / MCHC / MCV / Mono / Neu / PT / Plat / RBC / Ret / WBC: tissue Blood; for KIDNEY_L / KIDNEY_R / KIDNEY_TOTAL: tissue Kidney; for LIVER: tissue Liver; for A/G / ALP / ALT / AST / BUN / CRE / Ca / Cl / DBIL / GLC / IP / K / LDH / Na / PL / RALB / TBIL / TC / TG / TP / gamma-GTP: tissue Plasma
smiles,measurement,setting,value
CCOC(=O)[C@H](CCc1ccccc1)N[C@@H](C)C(=O)N1CCC[C@H]1C(=O)O,TERMINAL_BW,"72 h, time 3 day",243.2 g
same,APTT,"72 h, time 3 day",16.2 s
same,Bas,"72 h, time 3 day",0%
same,Eos,"72 h, time 3 day",0.8%
same,Fbg,"72 h, time 3 day",233.6 mg/dL
same,Hb,"72 h, time 3 day",13.1 g/dL
same,Ht,"72 h, time 3 day",39.8%
same,Lym,"72 h, time 3 day",82.6%
same,MCH,"72 h, time 3 day",21.3 pg
same,MCHC,"72 h, time 3 day",32.9%
same,MCV,"72 h, time 3 day",64.8 fL
same,Mono,"72 h, time 3 day",5.2%
same,Neu,"72 h, time 3 day",11.4%
same,PT,"72 h, time 3 day",11.6 s
same,Plat,"72 h, time 3 day",124.4 x10_4/uL
same,RBC,"72 h, time 3 day",614.6 x10_4/ul
same,Ret,"72 h, time 3 day",5.5%
same,WBC,"72 h, time 3 day",105.6 x10_2/uL
same,KIDNEY_L,"72 h, time 3 day",1.1 g
same,KIDNEY_R,"72 h, time 3 day",1.1 g
same,KIDNEY_TOTAL,"72 h, time 3 day",2.2 g
same,LIVER,"72 h, time 3 day",11.8 g
same,A/G,"72 h, time 3 day",2
same,ALP,"72 h, time 3 day",985.6 IU/L
same,ALT,"72 h, time 3 day",32.8 IU/L
same,AST,"72 h, time 3 day",63.2 IU/L
same,BUN,"72 h, time 3 day",20.2 mg/dL
same,CRE,"72 h, time 3 day",0.5 mg/dL
same,Ca,"72 h, time 3 day",10.9 mg/dL
same,Cl,"72 h, time 3 day",105.8 meq/L
same,DBIL,"72 h, time 3 day",0.028 mg/dL
same,GLC,"72 h, time 3 day",189.2 mg/dL
same,IP,"72 h, time 3 day",8 mg/dL
same,K,"72 h, time 3 day",5 meq/L
same,LDH,"72 h, time 3 day",90.6 IU/L
same,Na,"72 h, time 3 day",140.2 meq/L
same,PL,"72 h, time 3 day",160 mg/dL
same,RALB,"72 h, time 3 day",4 g/dL
same,TBIL,"72 h, time 3 day",0.3 mg/dL
same,TC,"72 h, time 3 day",81 mg/dL
same,TG,"72 h, time 3 day",93 mg/dL
same,TP,"72 h, time 3 day",6.1 g/dL
same,gamma-GTP,"72 h, time 3 day",2 IU/L
same,TERMINAL_BW,"[…], time 7 day",259.7 g
same,TERMINAL_BW,"[…], time 14 day",311.1 g
same,TERMINAL_BW,"[…], time 28 day",389.4 g
same,APTT,"[…], time 7 day",15.6 s
same,Bas,"[…], time 7 day",0%
same,Eos,"[…], time 7 day",0.6%
same,Fbg,"[…], time 7 day",232 mg/dL
same,Hb,"[…], time 7 day",13.5 g/dL
same,Ht,"[…], time 7 day",40.7%
same,Lym,"[…], time 7 day",84.6%
same,MCH,"[…], time 7 day",20.6 pg
same,MCHC,"[…], time 7 day",33.2%
same,MCV,"[…], time 7 day",61.9 fL
same,Mono,"[…], time 7 day",5%
same,Neu,"[…], time 7 day",9.2%
same,PT,"[…], time 7 day",11.6 s
same,Plat,"[…], time 7 day",124.1 x10_4/uL
same,RBC,"[…], time 7 day",658.4 x10_4/ul
same,Ret,"[…], time 7 day",4.8%
same,WBC,"[…], time 7 day",134.2 x10_2/uL
same,APTT,"[…], time 14 day",16.1 s
same,Bas,"[…], time 14 day",0%
same,Eos,"[…], time 14 day",1.2%
same,Fbg,"[…], time 14 day",247.4 mg/dL
same,Hb,"[…], time 14 day",14.3 g/dL
same,Ht,"[…], time 14 day",43%
same,Lym,"[…], time 14 day",76%
same,MCH,"[…], time 14 day",20.1 pg
same,MCHC,"[…], time 14 day",33.2%
same,MCV,"[…], time 14 day",60.7 fL
same,Mono,"[…], time 14 day",6.6%
same,Neu,"[…], time 14 day",16.2%
same,PT,"[…], time 14 day",11.3 s
same,Plat,"[…], time 14 day",118.7 x10_4/uL
same,RBC,"[…], time 14 day",710.6 x10_4/ul
same,Ret,"[…], time 14 day",3.5%
same,WBC,"[…], time 14 day",107.1 x10_2/uL
same,APTT,"[…], time 28 day",16.8 s
same,Bas,"[…], time 28 day",0%
same,Eos,"[…], time 28 day",1%
same,Fbg,"[…], time 28 day",252.6 mg/dL
same,Hb,"[…], time 28 day",15.1 g/dL
same,Ht,"[…], time 28 day",45.4%
same,Lym,"[…], time 28 day",85.6%
same,MCH,"[…], time 28 day",19.3 pg
same,MCHC,"[…], time 28 day",33.3%
same,MCV,"[…], time 28 day",58 fL
same,Mono,"[…], time 28 day",4.4%
same,Neu,"[…], time 28 day",8.8%
same,PT,"[…], time 28 day",11.6 s
same,Plat,"[…], time 28 day",108.6 x10_4/uL
same,RBC,"[…], time 28 day",782.8 x10_4/ul
same,Ret,"[…], time 28 day",3.5%
same,WBC,"[…], time 28 day",132.2 x10_2/uL
same,KIDNEY_L,"[…], time 7 day",1.1 g
same,KIDNEY_R,"[…], time 7 day",1.1 g
same,KIDNEY_TOTAL,"[…], time 7 day",2.3 g
same,KIDNEY_L,"[…], time 14 day",1.3 g
same,KIDNEY_R,"[…], time 14 day",1.3 g
same,KIDNEY_TOTAL,"[…], time 14 day",2.5 g
same,KIDNEY_L,"[…], time 28 day",1.5 g
same,KIDNEY_R,"[…], time 28 day",1.5 g
same,KIDNEY_TOTAL,"[…], time 28 day",3 g
same,LIVER,"[…], time 7 day",12.2 g
same,LIVER,"[…], time 14 day",13.6 g
same,LIVER,"[…], time 28 day",16.3 g
same,A/G,"[…], time 7 day",2.1
same,ALP,"[…], time 7 day",880.6 IU/L
same,ALT,"[…], time 7 day",32.6 IU/L
same,AST,"[…], time 7 day",61.8 IU/L
same,BUN,"[…], time 7 day",21.2 mg/dL
same,CRE,"[…], time 7 day",0.6 mg/dL
same,Ca,"[…], time 7 day",10.9 mg/dL
same,Cl,"[…], time 7 day",104 meq/L
same,DBIL,"[…], time 7 day",0.002 mg/dL
same,GLC,"[…], time 7 day",209.2 mg/dL
same,IP,"[…], time 7 day",8.6 mg/dL
same,K,"[…], time 7 day",5 meq/L
same,LDH,"[…], time 7 day",116.2 IU/L
same,Na,"[…], time 7 day",138 meq/L
same,PL,"[…], time 7 day",168.4 mg/dL
same,RALB,"[…], time 7 day",4 g/dL
same,TBIL,"[…], time 7 day",0.3 mg/dL
same,TC,"[…], time 7 day",88.8 mg/dL
same,TG,"[…], time 7 day",121.2 mg/dL
same,TP,"[…], time 7 day",5.9 g/dL
same,gamma-GTP,"[…], time 7 day",1 IU/L
same,A/G,"[…], time 14 day",1.8
same,ALP,"[…], time 14 day",821.6 IU/L
same,ALT,"[…], time 14 day",34.4 IU/L
same,AST,"[…], time 14 day",65.2 IU/L
same,BUN,"[…], time 14 day",24.4 mg/dL
same,CRE,"[…], time 14 day",0.6 mg/dL
same,Ca,"[…], time 14 day",10.8 mg/dL
same,Cl,"[…], time 14 day",106 meq/L
same,DBIL,"[…], time 14 day",0 mg/dL
same,GLC,"[…], time 14 day",199.2 mg/dL
same,IP,"[…], time 14 day",8.4 mg/dL
same,K,"[…], time 14 day",5 meq/L
same,LDH,"[…], time 14 day",105.2 IU/L
same,Na,"[…], time 14 day",138.4 meq/L
same,PL,"[…], time 14 day",155.4 mg/dL
same,RALB,"[…], time 14 day",4 g/dL
same,TBIL,"[…], time 14 day",0.3 mg/dL
same,TC,"[…], time 14 day",73.2 mg/dL
same,TG,"[…], time 14 day",113.2 mg/dL
same,TP,"[…], time 14 day",6.3 g/dL
same,gamma-GTP,"[…], time 14 day",1.4 IU/L
same,A/G,"[…], time 28 day",1.8
same,ALP,"[…], time 28 day",658.6 IU/L
same,ALT,"[…], time 28 day",31.6 IU/L
same,AST,"[…], time 28 day",61.4 IU/L
same,BUN,"[…], time 28 day",20.8 mg/dL
same,CRE,"[…], time 28 day",0.6 mg/dL
same,Ca,"[…], time 28 day",10.8 mg/dL
same,Cl,"[…], time 28 day",105.8 meq/L
same,DBIL,"[…], time 28 day",0.046 mg/dL
same,GLC,"[…], time 28 day",198.6 mg/dL
same,IP,"[…], time 28 day",7.3 mg/dL
same,K,"[…], time 28 day",4.8 meq/L
same,LDH,"[…], time 28 day",66.4 IU/L
same,Na,"[…], time 28 day",137.6 meq/L
same,PL,"[…], time 28 day",144.4 mg/dL
same,RALB,"[…], time 28 day",4.1 g/dL
same,TBIL,"[…], time 28 day",0.3 mg/dL
same,TC,"[…], time 28 day",69.2 mg/dL
same,TG,"[…], time 28 day",90.2 mg/dL
same,TP,"[…], time 28 day",6.4 g/dL
same,gamma-GTP,"[…], time 28 day",1.2 IU/L
